Test system: SCLC-A and SCLC-N cell lines
Experiment: Comparison of IC50 values between cell lines assigned to SCLC-A and SCLC-N by the methylation classifier (SCLC-DMC)
Type: cell-based
Description: FIGS. 22A-22D show comparison of IC50 values for the BCL2i ABT-737 (FIG. 22A) and the AURKi CYC-116 (FIG. 22B) between cell lines assigned to SCLC-A and SCLC-N using SCLC-DMC. Clinical outcome depending on classification method used. Overall survival of ES-SCLC patients stratified by classification using the RNAseq signature or SCLC-DMC for SCLC-A (FIG. 22C) and SCLC-N(FIG. 22D). The box plot is highlighting the median as well as the 25th and 75th percentile in the box extended by 1.5× the IQR with bars. […] To validate that these same vulnerabilities are preserved using the methylation classifier (FIG. 30), the inventors compared IC50 values for over 400 drugs^24 between methylation-assigned SCLC-A and SCLC-N subtypes and identified numerous distinct vulnerabilities between the groups.

| sensitivity by comparison of IC50 values (methylation-assigned SCLC-A cell lines compared with SCLC-N cell lines (FIG. 22A)) | sensitivity by comparison of IC50 values (methylation-assigned SCLC-N cell lines compared with SCLC-A cell lines (FIG. 22B)) | SMILES |
| --- | --- | --- |
| more sensitive |  | CN(C)CC[C@H](CSc1ccccc1)Nc1ccc(S(=O)(=O)NC(=O)c2ccc(N3CCN(Cc4ccccc4-c4ccc(Cl)cc4)CC3)cc2)cc1[N+](=O)[O-] [ABT-737] |
|  | more sensitive | Cc1nc(N)sc1-c1ccnc(Nc2ccc(N3CCOCC3)cc2)n1 [CYC-116] |

— US20240150848A1, “METHODS AND SYSTEMS FOR DIAGNOSIS, CLASSIFICATION, AND TREATMENT OF SMALL CELL LUNG CANCER AND OTHER HIGH-GRADE NEUROENDOCRINE CARCINOMAS” (BOARD OF REGENTS, THE UNIVERSITY OF TEXAS SYSTEM, priority 2021, published 2024)
